Results as given in BigSolDB 2.1.

COc1cc2c(cc1OC)-c1cc3ccc(OC)c(OC)c3c[n+]1CC2.[Cl-]
solubility (mole fraction)
Details | 283.15 K | 288.15 K | 293.15 K | 298.15 K | 303.15 K | 308.15 K | 313.15 K | 318.15 K | 323.15 K | 328.15 K
in ethanol | 0.00254 | 0.00299 | 0.00366 | 0.0045 | 0.00543 | 0.00651 | 0.00779 | 0.00914 | 0.0108 | 0.0127
in ethylene glycol | 0.00173 | 0.00202 | 0.00242 | 0.003 | 0.00362 | 0.00441 | 0.00529 | 0.00631 | 0.00745 | 0.00882
in isopropanol | 0.000177 | 0.000218 | 0.00028 | 0.000374 | 0.000479 | 0.000603 | 0.000754 | 0.000933 | 0.00115 | 0.00141
in propylene glycol | 6.32e-06 | 9.38e-06 | 1.36e-05 | 2.11e-05 | 3.12e-05 | 4.53e-05 | 6.48e-05 | 9.27e-05 | 0.00013 | 0.00018
in water | 0.000565 | 0.000693 | 0.000877 | 0.0011 | 0.00136 | 0.00165 | 0.002 | 0.0024 | 0.00287 | 0.00341
